Assays:
[1] = test system: PBMCs; experiment: Spectral flow cytometry immune phenotyping of PBMCs; format: in vivo, human
Procedure: Spectral flow cytometry to broadly analyse immune composition was performed on PBMCs from 25 UA and 25 placebo individuals from the cohort. Flow cytometry staining was performed in three batches, to minimize batch-related effects.
PBMC were thawed and allowed to recover for 3 hours in uncoated cell culture dishes. All samples for any particular donor series were thawed together. For the intracellular panel, cells were stained after recovery with the surface panel, then fixed and permeabilized using the ThermoFisher Foxp3 fix/perm system, followed by staining for intracellular markers. For the surface-only panel, cells were treated with Bafilomycin A1 (0.5 μM) for 45 minutes, followed by 45 minutes incubation with 5-dodecanoylaminofluorescein di-β-D-galactopyranoside (C12FDG) before harvest and surface staining. All cells were analyzed on a Cytek Aurora cytometer. FCS files were exported into FlowJo (BD) for further analysis.
Raw data for all 64 output channels were unmixed using library single-color reference controls for each marker. Spectral compensation for the resulting unmixed data was corrected by manually adjusting a 31×31 matrix of spectral overlaps. Once the data was properly compensated, each individual marker was checked for signal and specificity. The resulting data was then manually gated using a representative sample. The gates are then applied to the other samples in the batch, while spot-checking the gating of the other samples for consistency with the first sample gated.

[2] = Laboratory chemistry / biochemical safety analysis; format: in vivo, human
Procedure: During the baseline and follow-up visits, blood was drawn by a physician or physician's assistant to assess blood biochemistry parameters and haematology. Analysis was performed using clinically validated systems at the University Hospital Frankfurt, Germany.

[3] = test system: PBMCs; experiment: SCENITH mitochondrial dependency analysis of immune populations; format: in vivo, human; conditions: d28, 1000 mg/day oral
Procedure: Single cell energetic metabolism by profiling translation inhibition (SCENITH) was used to determine metabolic dependencies of select immune populations, which was performed as described previously (R. J. Argüello et al. Cell metabolism […], 32, 1063-1075). SCENITH reagents kit (inhibitors, puromycin and antibodies) were obtained from www.scenith.com/try-it and used according to the provided protocol. In short, 0.3×10^6 PBMCs were treated for 15 min with Control (DMSO), 2-Deoxy-Glucose (2-DG; 100 mM), Oligomycin (O; 1 μM) and the combination of 2DG and Oligomycin (DGO) or Harringtonine (H; 2 μg/mL). Following metabolic inhibitors, Puromycin (final concentration 10 μg/mL) was added to cultures for 30 min. After puromycin treatment, cells were washed in PBMC was buffer and stained with the following antibodies for 15 min at 4° C.: PE-Cy7 CD4, APC Cy7 CD8, CD45RA AF700, vFkour 450 CD3, CCR7 APC, BV786 CD14 PercP5.5 CD19, PE-CF594 CD16; CD56 BV711, BV510 Viability dye.
Cells were fixed and permeabilized using the Foxp3 intracellular staining kit (Invitrogen eBioscience) for 1 h. Intracellular staining of puromycin and protein targets was performed for 1 h in diluted (10×) permeabilization buffer at 4° C. Finally, data acquisition was performed using the Cytek Aurora flow cytometer. Samples were unmixed using reference controls generated in combination with stained Ultracomp beads (Fisher Scientific, 01-2222-41) using the SpectroFlo Software. The unmixed FCS files were used for data processing and analysis using FlowJo (BD, version 10.8.1). Immune cell populations of interest were gated manually for downstream analysis. gMFI expression values for Puromycin were exported from FlowJo to calculate metabolic dependencies. The following calculations were used:
To further characterize the metabolic profile of immune cells on a single-cell resolution, we employed SCENITH, a flow-cytometry based strategy that uses incorporation of Puromycin to infer metabolic dependencies (see Argüello et al., SCENITH: A flow cytometry-based method to functionally profile energy metabolism with single cell resolution, 2020, Cell Metabolism, 32, 1063-1075).

[4] = test system: TSCM; conditions: in vitro (Denk et al. Immunity 2022); cited from earlier work
[5] = test system: circulating immune cells; experiment: Clinical hemocytometry of circulating immune cells; format: in vivo, human; conditions: d28 vs baseline, 1000 mg/day oral
Procedure: During the baseline and follow-up visits, blood was drawn by a physician or physician's assistant to assess blood biochemistry parameters and haematology. Analysis was performed using clinically validated systems at the University Hospital Frankfurt, Germany. The aim of the present study was to globally assess the effect of UA on the immune system, in particular with respect to parameters of immune aging. We therefore performed clinical hemocytometry to first categorize circulating immune cells, comparing immune composition at baseline and upon the last study visit (FIG. 1A).

[6] = human, in vivo
[7] = 28 days, 1000 mg/day oral, vs placebo
[8] = d28, 1000 mg/day oral, between the two groups
[9] = d28, 1000 mg/day oral, not present after placebo

## O=c1oc2cc(O)ccc2c2ccc(O)cc12 [Urolithin A]
[1]; 28 days, 1000 mg/day oral
  CD8+ TEMRA: remained unaffected
  CD8+ central memory cells (TCM): remained unaffected
  CD8+ virtual memory cells (TVM): remained unaffected
[1]; 28 days, 1000 mg/day oral, UA vs placebo group
  CD8+ TSCM: no differences
[1]; 28 days, 1000 mg/day oral, compared to placebo
  Proportion of naïve CD8+ T cells (TN) among total PBMCs: increased
[1]; [7]
  CD8+ effector memory cells (TEM): concomitantly reduced
  Percentage of CD4+ T cells among total PBMCs: no differences
  Percentage of CD8+ T cells among total PBMCs: no differences
  Percentage of circulating γδ T cells among total PBMCs: no differences
  Percentage of total αβCD3+ T cells among total PBMCs: no differences
[1]; after 28 days, 1000 mg/day oral, compared to placebo
  Nonclassical monocytes (CD14loCD16hi) among total PBMCs: increased
[1]; after last study visit (d28), 1000 mg/day oral, not present after placebo
  Ki67 in CD8+ cells: more
[1]; d28, 1000 mg/day oral
  CD4+ TCM population: no difference
  CD4+ TEM population: no difference
  CD4+ TN population: no difference
  CD4+ TSCM population: no difference
  CD4+ Th1 cells (T-bet): no changes
  CD56dimCD16bright NK cells among total PBMCs: markedly expanded
  Circulating DCs: did not change
  Circulating ILCs: did not change
  Circulating T follicular helper cells (Tfh1, Bcl-6): no changes
  FoxP3+ Treg: no changes
  Gata3+ Th2 cells: no changes
  NK cell inhibitory receptor KIR expression: No change
  NK cell inhibitory receptor KLRG1 expression: No change
  NK cell inhibitory receptor NKG2A expression: No change
  PD-1 expression in CD8+ cells: unaltered
  Senescence marker p16: no difference
  Senescence marker p21: no difference
[1]; [8]
  Classical monocytes: did not undergo change
  Intermediate monocytes (CD14hiCD16hi): did not undergo change
  Percentage of plasma cells among PBMCs: no changes
  Percentage of plasmablasts among PBMCs: no changes
  Percentage of total B cells among PBMCs: no changes
  Specific B cell subsets: no changes
[1]; [9]
  Senescence-associated β-galactosidase (SA-β-GAL) in circulating CD8+ cells: increased
  TOX expression in CD8+ cells: small reduction
[1]; final study visit (d28), 1000 mg/day oral
  HLA-DR on classical monocytes: less
[2]; Group A d 28, 1000 mg/day oral, d 0 0.53 ± 0.31, p 0.28 n.s.
  Bilirubin (mean ± SD): 0.49 ± 0.26 mg/dL
[2]; Group A d 28, 1000 mg/day oral, d 0 0.82 ± 0.13, p 0.80 n.s.
  Creatinine (mean ± SD): 0.81 ± 0.11 mg/dL
[2]; Group A d 28, 1000 mg/day oral, d 0 4.54 ± 0.24, p 0.85 n.s.
  Albumin (mean ± SD): 4.55 ± 0.24 g/dL
[2]; Group A d 28, 1000 mg/day oral, d 0 4.86 ± 1.43, p 0.25 n.s.
  Uric acid (mean ± SD): 5.04 ± 1.79 mg/dL
[2]; Group A d 28, 1000 mg/day oral, d 0 7.02 ± 0.38, p 0.59 n.s.
  Total Serum Protein (mean ± SD): 7.06 ± 0.35 g/dL
[2]; Group A d 28, 1000 mg/day oral, d 0 24.60 ± 15.90, p 0.07 n.s.
  gGT (mean ± SD): 27.13 ± 19.19 U/I
[2]; Group A d 28, 1000 mg/day oral, d 0 27.26 ± 11.56, p 0.76 n.s.
  AST (mean ± SD): 28.04 ± 16.10 U/I
[2]; Group A d 28, 1000 mg/day oral, d 0 28.00 ± 24.02, p 0.38 n.s.
  ALT (mean ± SD): 29.44 ± 30.27 U/I
[2]; Group A d 28, 1000 mg/day oral, d 0 66.06 ± 13.51, p 0.06 n.s.
  HDL cholesterol (mean ± SD): 62.98 ± 17.58 mg/dL
[2]; Group A d 28, 1000 mg/day oral, d 0 75.40 ± 20.60, p 0.15 n.s.
  AP (mean ± SD): 73.28 ± 19.22 U/I
[2]; Group A d 28, 1000 mg/day oral, d 0 136.6 ± 33.95, p 0.89 n.s.
  LDL cholesterol (mean ± SD): 136.2 ± 30.56 mg/dL
[2]; Group A d 28, 1000 mg/day oral, d 0 154.0 ± 98.53, p 0.53 n.s.
  Triglycerides (mean ± SD): 143.2 ± 70.34 mg/dL
[2]; Group A d 28, 1000 mg/day oral, d 0 212.5 ± 33.60, p 0.89 n.s.
  Total Cholesterol (mean ± SD): 213.0 ± 33.48 mg/dL
[2]; after the 28-day intervention period, 1000 mg/day oral
  Changes in metabolic markers, kidney function parameters and liver enzymes: No significant changes
[3]; CD8+ cells
  Capacity to shift to OXPHOS when deprived of glycolysis: stronger capacity
  Dependence on glucose metabolism: less dependence
[3]
  Mitochondrial capacity in CD8+ subsets TN, TEM, TCM, TEEF: potentiation
  Mitochondrial capacity in total CD8+ cells: potentiates
[4]
  TSCM formation: induces TSCM formation
[5]
  Monocytes (total count): did not show marked alterations
  Neutrophiles (total count): did not show marked alterations
  Total leukocytes (count): did not show marked alterations
[5]; not observed with placebo
  Circulating eosinophiles (total count): significantly more
  Circulating lymphocytes (total count): significantly more
[6]
  Intensity of adverse events noted during the study: all mild

Reference: patent US20250345309A1, “IMMUNE HEALTH IMPROVERS” (Amazentis SA, priority 2024, published 2025)
